# From patent US20050124607A1, “5-Substituted quinazolinone compounds useful as alpha 1A/B adrenergic receptor antagonists” (priority 2003, published 2005)
# Where a name gives a salt, the structure may show the parent alone.
row,SMILES,melting point
1,"COc1cc2[nH]c(N3CCN(c4cc(C)ccn4)CC3)nc(=O)c2c(OC)c1OC [Example 25, 5,6,7-Trimethoxy-2-[4-(4-meth-yl-pyridin-2-yl)-pipe-razin-1-yl]-1H-quina-zolin-4-one]",235.3 to 235.5 °C
2,COc1cc2[nH]c(N3CCN(C4=NCCN4C)CC3)nc(=O)c2c(OC)c1OC (as salt: HCl),181.6 to 188.8 °C
3,"COc1cc2[nH]c(N3CCC(OCc4ccccc4S(=O)(=O)N(C)C)CC3)nc(=O)c2c(C)c1OC [Example 61, 2-[1-(6,7-Dimethoxy-5-meth-yl-4-oxo-1,4-di-hydro-quinazolin-2-yl)-pipe-ridin-4-yl-oxymethyl]-N,N-dimethyl-benzene-sulfonamide]",217.9 to 219.8 °C
4,"COc1cc2c(cc1OC)CN(c1cc(=O)c3cc(Cl)c(Cl)cc3[nH]1)CC2 [Example 7, 6,7-Dichloro-2-(6,7-di-methoxy-3,4-dihydro-1H-iso-quinolin-2-yl)-1H-quino-lin-4-one]",266 to 271 °C
5,"COc1ccnc(N2CCN(c3nc(=O)c4c(OC)c(OC)c(OC)cc4[nH]3)CC2)c1 [Example 30, 5,6,7-Trimethoxy-2-[4-(4-meth-oxy-pyridin-2-yl)-pipe-razin-1-yl]-1H-quina-zolin-4-one]",229 to 231 °C
6,"COc1cc2[nH]c(N3CCN(c4cccc[n+]4[O-])CC3)nc(=O)c2c(OC)c1OC [Example 26, 5,6,7-Trimethoxy-2-[4-(1-oxy-py-ridin-2-yl)-pipe-razin-1-yl]-1H-quina-zolin-4-one]",142.8 to 147.2 °C
7,COc1cc2[nH]c(N3CCC(CCn4ccnc4N)CC3)nc(=O)c2c(OC)c1OC,252.4 to 253.2 °C
8,"COc1cc2[nH]c(N3CCC(OCc4ccccc4S(=O)(=O)N(C)C)CC3)nc(=O)c2c(OC)c1OC [Example 77, N,N-Dimethyl-2-[1-(5,6,7-tri-methoxy-4-oxo-1,4-di-hydro-quinazolin-2-yl)-pipe-ridin-4-yloxy-methyl]-benzene-sulfonamide]",186 to 188.2 °C
9,COc1cc2[nH]c(N3CCC(CCN4CCN=C4C)CC3)nc(=O)c2c(C)c1OC,266.1 to 269.5 °C
10,"COc1cc2[nH]c(N3CCC(Cc4cccc(C(=O)O)c4)CC3)nc(=O)c2c(OC)c1OC [Example 79, 3-[1-(5,6,7-Trimethoxy-4-oxo-1,4-di-hydro-quina-zolin-2-yl)-pipe-ridin-4-ylmethyl]-benzoic acid]",245 to 249 °C
11,"COC[C@@H]1CCCN1CCC1CCN(c2nc(=O)c3c(C)c(OC)c(OC)cc3[nH]2)CC1 [Example 51, 6,7-Dimethoxy-2-{4-[2-((S)-2-meth-oxymethyl-pyr-rolidin-1-yl)-ethyl]-pipe-ridin-1-yl}-5-meth-yl-1H-quinazolin-4-one]",83.1 to 110.9 °C
12,COc1cc2[nH]c(N3CCN(c4nccn4C)CC3)nc(=O)c2c(C)c1OC,263 to 264 °C
13,"COc1cc2[nH]c(N3CCC(OCc4cccc(N(S(C)(=O)=O)S(C)(=O)=O)c4)CC3)nc(=O)c2c(OC)c1OC [Example 80, N-Methane-sulfonyl-N-{3-[1-(5,6,7-tri-methoxy-4-oxo-1,4-di-hydro-quina-zolin-2-yl)-pipe-ridin-4-yloxy-methyl]-phenyl}-methane-sulfonamide]",100.7 to 160.4 °C

# Next, values leading:
row,melting point,SMILES
1,202.4 to 204.4 °C,"COCCOc1c(OC)c(OC)cc2[nH]c(N3CCc4cc(OC)c(OC)cc4C3)nc(=O)c12 [Example 105, 2-(6,7-Dimethoxy-3,4-di-hydro-1H-isoquinolin-2-yl)-6,7-di-methoxy-5-(2-meth-oxy-ethoxy)-1H-quina-zolin-4-one]"
2,176 to 177.1 °C,"COc1cc2[nH]c(N3CCc4ccc(/N=C(\C)N(C)C)cc4C3)nc(=O)c2c(C)c1OC [Example 132, N′-[2-(6,7-Dimethoxy-5-meth-yl-4-oxo-1,4-di-hydro-quinazolin-2-yl)-1,2,3,4-tetra-hydro-isoquinolin-7-yl]-N,N-di-methyl-acetamidine]"
3,260 to 268 °C,"COc1cc2c(cc1OC)CN(c1nc(=O)c3c(C)c(OC)c(OC)cc3[nH]1)CC2 (as salt: HCl) [Example 121, 2-(6,7-Dimethoxy-3,4-di-hydro-1H-isoquinolin-2-yl)-6,7-di-methoxy-5-meth-yl-1H-quinazolin-4-one]"
4,279 to 282 °C,"COc1cc2[nH]c(N3CCc4c(cccc4NC(=N)c4ccco4)C3)nc(=O)c2c(C)c1OC [Example 124, N-[2-(6,7-Dimethoxy-5-meth-yl-4-oxo-1,4-di-hydro-quinazolin-2-yl)-1,2,3,4-tetra-hydro-iso-quinolin-5-yl]-furan-2-carboxamidine]"
5,> 300 °C,"COc1cc2[nH]c(N3CCc4c(ncnc4N4CCOCC4)C3)nc(=O)c2c(C)c1OC [Example 136, 6,7-Dimethoxy-5-meth-yl-2-(4-morpholin-4-yl-5,8-di-hydro-6H-py-rido[3,4-d]pyrimidin-7-yl)-1H-quina-zolin-4-one]"
6,255 to 259 °C,"COc1cc2c(cc1OC)CN(c1nc(=O)c3c(O)c(OC)c(OC)cc3[nH]1)CC2 (as salt: HCl) [Example 110, 2-(6,7-Dimethoxy-3,4-di-hydro-1H-isoquinolin-2-yl)-5-hy-droxy-6,7-di-methoxy-1H-quinazolin-4-one]"
7,243 to 244 °C,"COc1cc2c(cc1OC)CN(c1nc(=O)c3c(C(C)C)c(OC)c(OC)cc3[nH]1)CC2 (as salt: HCl) [Example 119, 2-(6,7-Dimethoxy-3,4-di-hydro-1H-isoquinolin-2-yl)-5-iso-propyl-6,7-di-methoxy-1H-quina-zolin-4-one]"
8,253.3 to 261.9 °C,"COc1cc2c(cc1OC)CN(c1nc(=O)c3c(OC(C)C)c(OC)c(OC)cc3[nH]1)CC2 (as salt: HCl) [Example 107, 2-(6,7-Dimethoxy-3,4-di-hydro-1H-isoquinolin-2-yl)-5-iso-propoxy-6,7-di-methoxy-1H-quina-zolin-4-one]"
9,198 to 201 °C,"COc1cc2nc(N3CCN(C(=O)CCC(C)C)CC3)[nH]c(=O)c2c(OC)c1OC (as salt: salt) [Example A-1, 5,6,7-Trimethoxy-2-[4-(4-methyl-pentanoyl)-piperazin-1-yl]-1H-quinazolin-4-one]"
10,223.5 to 226.6 °C,"COc1cc2[nH]c(N3CCc4c(cccc4/N=C(\C)N(C)C)C3)nc(=O)c2c(OC)c1OC [Example 122, N,N-Dimethyl-N′-[2-(5,6,7-tri-methoxy-4-oxo-1,4-di-hydro-quinazolin-2-yl)-1,2,3,4-tetra-hydro-iso-quinolin-5-yl]-acetamidine]"
11,260.8 to 269 °C,"COc1cc2c(cc1OC)CN(c1nc(=O)c3c(F)c(OC)c(OC)cc3[nH]1)CC2 [Example 133, 2-(6,7-Dimethoxy-3,4-di-hydro-1H-isoquino-lin-2-yl)-5-fluoro-6,7-di-methoxy-1H-quina-zolin-4-one]"
12,192.2 to 193.5 °C,"CCCC(=N)Nc1cccc2c1CCN(c1nc(=O)c3c(OC)c(OC)c(OC)cc3[nH]1)C2 [Example 115, N-[2-(5,6,7-Trimethoxy-4-oxo-1,4-di-hydro-quina-zolin-2-yl)-1,2,3,4-tetra-hydro-isoquinolin-5-yl]-butyramidine]"
13,214 to 215.8 °C,"COc1cc2c(cc1OC)CN(c1nc(=O)c3c(OCC4CC4)c(OC)c(OC)cc3[nH]1)CC2 [Example 108, 5-Cyclopropylmethoxy-2-(6,7-di-methoxy-3,4-di-hydro-1H-isoquinolin-2-yl)-6,7-di-methoxy-1H-quinazolin-4-one]"
